Test results published in patent EP0374267A1, “DERIVATIVES OF PLATINUM (P) WITH A POLYANION OF DEOXYRIBONUCLEIC ACID, METHOD FOR OBTAINING THEM AND PHARMACEUTICAL ANTITUMOR PREPARATION BASED ON THEM” (priority 1988, dated 1989).

How the values were obtained:
[1] = system: Shvetz-Erythromyelose; test: Antineoplastic activity against transplanted Shvetz erythromyelosis in rats; format: in vivo, weissen rassenlosen Ratten; conditions: for Grad der Hemmung des Wachstums eines Tumors: i.p. 3x at 24 h intervals from day 4-6 after inoculation, dose I 17.1, II 17,1-27,3, III 27,3, CDDP 8,1, DNS 18,0 mg/kg
Text: Die erfindungsgemässen Verbindung weisen antineonlastische Aktivität in Verbindung mit einer immunomudulierenden Wirkung auf. Die beanspruchten Verbindungen und das erfindungsgemässe Arzneipräparat mit antineoplastischer Wirkung wurden in Versuchen an Tieren und in Kliniken an Menschen untersucht. Untersucht wurde ihre antineoplastische Aktivität gegenüber der überimnften Shvetz-Erythromyelose Die antineoplastische Aktivität jedes der angemeldeten Stoffe bewertete man nach den Ergebnissen der Versuche, die an weissen rassenlosen Ratten mit einem Gewicht von 150 bis 200 g (in Gruppen zu je 10 Tieren) angestellt wurden. Den Tieren wurden 2.10^8 - 2.10^10 Zellen des überimpften Stammes der Shvetz-Erythromyelose subkutan in die Hüfte inokuliert. Am 4. bis 6. Tag nach der Inokulation der Tumorzellen, das heisst in der Periode der logarythmischen Phase des Wachstums eines Tumors, begann man, den Tieren die erfindungsgemässen Verbindungen einzuführen. Die angemeldeten Verbindungen wurden intraperitoneal dreimal mit einem Zeitabstand von 24 stunden in Form von wässerigen Lösungen beziehungsweise wässerigen Suspensionen eingeführt.
Antineoplastische Wirkung der erfindung sgemässen Verbindungen wurde im Vergleich zur Kontrolle (ohne Anwendung der Präparate) und im Vergleich zu den CDDP- und DNS-Präparaten untersucht.
Die antineoplastische Aktivität bewertete man nach folgenden biologischen Kenndaten: Grad der Hemmung des Wachstums eines Tumors, der Uberlebenskraft von Tieren am 10. Tag nach der Inokulation vom Tumorzellen sowie der Lebensdauer von Tieren.

[2] = system: humorale Immunität; test: Humoral immunity in tumour-bearing rats immunised with sheep erythrocytes; format: in vivo, Ratten der Wistar-Linie; conditions: treated tumour bearers, 4 days after immunisation
Text: Der Einfluss auf die homorale Immunität (Antiteloge- nese)- bewertete man nach der Menge von antikörperbildenden Zellen in der Milz und nach dem Titer von Agglutininen und Hämolysinen im Blütserum.
Der Einfluss der beansprucheen Stoffe auf die humorale Immunität wurde auch im Vergleich zum CDDP und zur DNS untersucht. Dafür wurden Ratten,Tumorträger der Shvetz-Erythromyelose der Wistar-Linie eingesetzt, denen man ein Tumor subkutan in die Hüfte überimpfte. Am 4. Tag nach der Uberimpfung des Tumors begann man ihre Behandlung nach dem gleichen Schema wie auch bei der Untersuchung der zellulären Immunität. Am 8. Tag nach der Uberimpfung des Tumors führte man die Immunisierung der Tiere durch, indem man ihnen intraperitoneal Hammelerythrozyte in einer Dosis von 2.10^6 Zellen einführt. In 4. Tagen nach der Immunisierung tötete man die Tiere mittels Dekapitation unter Anwendung von Athernarkose und man ermittelte den Gehalt an antikörperbildenden Zellen in der Milz nach der Erne-Methode und die Agglutinine- und Hämolysine-Titer im periphärischen Blut mit bekanntnn Methoden.
Der Gehalt an antikörperbildenden Zellen ermittelte man, berechnet auf I0^6 Splenozyte und auf die Gesamtmasse der Milz. Dee Versuchergebnisse sind in der Tabelle 4 angeführt.

[3] = Antibody (agglutinin) titre in serum of intact mice immunised with sheep erythrocytes; format: in vivo, Mäuse-Linien CBA und C57Bl6
Text: Der Einfluss der beanspruchten Stoffe auf die Antitelogenese wurde auch an zwei gegensätzlich auf Hammelerythrozyte reagierenden Mäuse-Linien: CBA und C57Bl6 untersucht. Man verwendete Tiere mit einem Gewicht von 20+2 g, die einer Quarantäne innerhalb von mindestens 20 Tagen ausgesetzt wurden. […] In einer Stunde wurden die Tiere immunisiert, indem man ihnen intraperitoneal I0^8 Zellen der Hammelerythrozyte einführt..Am 7., 14. und 30. Tag tötete man die Tiere und ermittelte man den Gehalt an Agglutininen im Blutserum in an sich bekannter Weise. Die Ergebnisse wurden in Form lg2 der Antikörper-Titer ausgedrückt. Die Ergebnisse sind in der Tabelle 5 angeführt.

[4] = system: antikörperbildenden Zellen in der Milz; test: Antibody-forming cells in the spleen of mice immunised with sheep erythrocytes; format: in vivo, Mäusen der CBA-Linien und C57Bl6-Linie; conditions: CBA and C57Bl6 mice, day 4; CDDP 8,1, DNS 6,0, compounds 13,6 mg/kg i.p.; numeric Table 6 is an image
Experimental: Es wurden Untersuchungen des Einflusses der bean - spruchten Stoffe im Vergleich zu den CDDP- und DNS-Präparaten auf die Bildung von antikörperbildenden Zellen in der Milz von zwei gegensätzlich auf die Hammelerythrozyte reagierenden Mäuse-Linien durchgeführt.
In I Stunde wurden die Tiere immunisiert, indem man ihnen intraperitoneal […] Zellen der Hammelerythrozyte einführte . Am 4. Tag ermittelte man die Anzahl der antikörperbildenden Zellen in der Milz der Tiere der Versuchs-und der Kontrollgruppe (ohne Einführung des Präparats). Der Gehalt an antikörperbildenden Zellen berechnete man auf […] Splenozyte und auf die ganze Milz. Die Ergebnisse der Untersuchungen sind in der Tagelle 6 dargestellt.

[5] = CDDP in combination with Vinblastin, Bleomycin, Aktinomycin und Prednisolon; cited from earlier work
[6] = Acute toxicity, intraperitoneal, rats and mice (with histology of kidney and gut); format: in vivo, weissen rassenlosen Ratten; weissen nichtlinearen Mäusen; conditions: i.p. 3x at 2 h intervals, total dose
Text: Die Anzahl der krepierten Tiere in jeder Gruppe wurde alle 21 bis 48 Stunden registriert. In jeder Gruppe waren je 12 Tiere (6 Männchen und 6 Weibchen), die Versuche wurden zweimal wiederholt. Die Ergebnisse der Versuche sind in der Tabelle 2 angeführt.
Die krepierten Tiere wurden obduziert und man führte hystologische Untersuchungen der Nieren und des Darmes durch. Die Tiere, die die beanspruchten Stoffe in einer unter der toxischen Dosis liegenden Menge verabreicht bekamen, wurden in I4 Tagen getötet. Die inneren Organe derselben wurden der Autopsie ausgesetzt.

[7] = system: zelluläre Immunität; test: Cellular immunity: rejection time of a skin allograft in tumour-bearing rats; format: in vivo, Männchenratten der Wistar-Linie; conditions: treated tumour bearers; i.p. 3x at 24 h; I 17,1, II 17,1, III 27,3, DNS 12,0, CDDP 8,1 mg/kg
Text: Der Einfluss auf die zelluläre Immunität bewertete man nach der Zeit der Abstossung eines Allotransplantats der Haut eines Tumorträgers.
Der Einfluss der beanspruchten Stoffe auf die zelluläre Immunität wurde an Männchenratten der Wistar-Linie mit einem Gewicht von 150 bis 200 g untersucht. Den Tieren wurde ein Hautlappen mit Abmessungen 2 x 3 cm^2 von den Ratten der August-Linie in die Rückengegend transplantiert. Dann wurden denselben Tieren subkutan 2.10^8 Zellen der Shvetz-Erythromyelose in die Hüfte inokuliert. Am 4. bis 6. […] Zum Vergleich verwendete man die DNS- und CDDP-Präparate, die amn in einer Salz-lösung nach dem gleichen'Schema in Dosen von 12,0 und 8,1 mg/kg einführte. Als Kontrolle dienten intakte Tiere. Die Zeit der Abstossung des Hautlappens fixierte man nach der Änderung seiner Temperatur, Farbe und Elastizität.

[8] = Solubility; format: physicochemical; conditions: 20°C
[9] = pH of a solution in citrate-salt solution (potentiometric); format: physicochemical; conditions: 0,015 g (II: 0,018 g) in 1000 ml Zitrat-Salz-Lösung, 20°C
Experimental: Die erfindung sgemässe Verbindung, Poly{hexakis-[Chloroammindiaquaplatin (II)]} - µ - desoxyribonukleat fol- ^gender Formel: [drawing 3] worin n = 1900±90, m = bn,- DNS = (̵C39H49O32N15P4)̵n ..., verliert bei Erhitzung innerhalb von IO Stunden bei einer Temperatur von I80 bis 200°C alle Wassermoleküle. Der Stoff lässt sich schlecht in Wasser, Methanol, Athanol auflösen, er ist nichthygroskopisch. Seine Löslichkeit in wasser bei einer Temperatur von 20°C beträgt 0,002%. Eine Lösung von 0,015 g des beanspruchten Stoffes in I000 ml einer Zitrat-Salz-Lösung (0,015 Mol NaCl + 0,0015 Mol Natriumzitrat) bei einer Temperatur von 20°C hat einen pH-Wert von 5,42 (pH- potentiometrisch).

Compound | Uberlebenskraft von Tieren ([1]; day 10 after inoculation of tumour cells, same doses as E1) | Grad der Hemmung des Wachstums eines Tumors [1] | Gehalt an antikörperbildenden Zellen je 10^6 Splenozyte [2] | lg2 Antikörper-Titer ([3]; Linie der Mäuse C57Bl6, day 7) | Gehalt an antikörperbildenden Zellen in der Milz [4] | Effektivität der Behandlung einer Eierstockgeschwulst [5] | lg2 Antikörper-Titer ([3]; Linie der Mäuse CBA, day 7, single i.p. dose (compounds 13,6, CDDP 8,1, DNS 6,0 mg/kg)) | lg2 Antikörper-Titer ([3]; Linie der Mäuse CBA, day 14) | lg2 Antikörper-Titer ([3]; Linie der Mäuse CBA, day 30) | LD50 ([6]; in Lösung) | LD50 ([6]; in Suspension) | Die Zeit der Abstossung (in Tagen) eines Hauptlappens [7] | Löslichkeit in Wasser [8] | pH-Wert [9] | increase of Uberlebenskraft von Tieren compared with CDDP ([1]; versus CDDP) | lg2 Antikörper-Titer ([3]; Linie der Mäuse C57Bl6, day 14) | lg2 Antikörper-Titer ([3]; Linie der Mäuse C57Bl6, day 30) | LDI00 ([6]; in Lösung) | LDI00 ([6]; in Suspension)
N.N.[Cl][Pt][Cl] [CDDP, cis-Dichlorodiaminplatin(II)] | 80% | 78% | 20,37±2,03 | 3,80±0,24 | senken | 100% | – | – | – | – | – | – | – | – | – | – | – | – | –
Poly {bis[hydroxochloramminaquaplatin(II)] - tetrakis[chloroammindiaquaplatin(II)] - µ - desoxyribonukleat [Verbindung II] | – | 94% | – | 6,60±0,32 | – | – | 7,20±0,30 | 7,60±0,32 | 6,40±0,42 | 66,0 mg/kg | 66,0 mg/kg | 6,5±0,5 Tagen | 0,0075% | > 5,38 | – | – | – | – | –
Poly{hexakis [chlor- amminaquaplatin(II)]} - µ - desoxyribonukleat [Verbindung III] | – | 95% | – | – | – | – | – | 8,40±0,42 | 8,50±0,30 | – | 82,5 mg/kg | 6,5±0,5 Tagen | – | 5,44 | 20% | 6,68±0,29 | 6,32±0,24 | – | –
Poly{hexakis-[Chloroammindiaquaplatin (II)]} - µ - desoxyribonukleat [Verbindung I] | – | 84% | 68,4±9,38 | – | – | – | – | – | – | – | – | – | 0,002% | 5,42 | – | 6,82±0,38 | – | 84,0 mg/kg | 84,0 mg/kg
